From patent publication US5350768A, “Derivatives of cysteine” (priority 1987, dated 1994)
Where two headings read alike, the source gives them in different places.

Tests used:
[1] = Experimental: (§1) Therefore, experiments were performed to investigate biological stability and bioavailability of the compounds of formula I, and to compare these with N-acetyl-L-cysteine.
[2] = Plasma concentrations and urinary excretion in healthy human volunteers after oral intake
Experimental: as §1
Plasma concentrations and urinary excretion in helthy human volunteers were measured after oral intake of N-acetyl-L-cysteine, and N-isobutyryl-L-cysteine, 1.23 mmole of each.

[3] = Plasma thiol concentrations after intraintestinal injection in anaesthetized rats
Experimental: as §1
The thiols were injected into the intestines of anaesthetized rats. At various times after the injections blood samples were withdrawn, and plasma thiols analyzed. […] The values given represent mean±SEM, unless otherwise stated.

Structure (SMILES) | biological stability (in words) [1] | Cmax ([2]; human, in vivo, po, 1.23 mmol) [µM] | bioavailability / plasma levels after oral intake (in words) ([2]; oral intake) | plasma level after intraintestinal injection (in words) ([3]; rat, in vivo) | concentration ([3]; read-out: concentrations of the thiols in plasma, after injection into intestines of anaesthetized rats, only one experiment performed) [µM] | hydrolysis in homogenates [1] | concentration ([3]; rat, in vivo) [µM] | bioavailability / plasma levels after oral intake (in words) ([2]; human, in vivo, po)
CC(=O)N[C@@H](CS)C(=O)O [N-acetyl-L-cysteine, reference compound] | biologically unstable | < 1 | poor bioavailability | barely detectable in plasma | 0.7 |  |  | 
CC(C)(C)C(=O)N[C@@H](CS)C(=O)O [N-pivaloyl-L-cysteine] | much more biologically stable |  |  |  |  | not hydrolyzed to any measureable extent | 11.8 | 
CC(C)C(=O)N[C@@H](CS)C(=O)O [N-isobutyryl-L-cysteine] | much more biologically stable |  |  | reached considerable concentrations |  |  | 13 ± 2.9 | reached high concentrations in plasma
